{"source": "ChEMBL document CHEMBL3588744", "about": "“Structure-Based Optimization of Naphthyridones into Potent ATAD2 Bromodomain Inhibitors” (J Med Chem, 2015)", "key": {"[1]": {"biological_target": "T1, Bromodomain-containing protein 4 (Homo sapiens, UniProt O60885)", "assay": "Binding affinity to BRD4 BD1 (unknown origin) by BROMOscan panel based assay"}, "[2]": {"biological_target": "Chromatin remodeling regulator CECR2 (Homo sapiens, UniProt Q9BXF3)", "assay": "Binding affinity to CECR2 (unknown origin) by BROMOscan panel based assay"}, "[3]": {"biological_target": "Bromodomain-containing protein 1 (Homo sapiens, UniProt O95696)", "sequence (O95696 whole entry)": "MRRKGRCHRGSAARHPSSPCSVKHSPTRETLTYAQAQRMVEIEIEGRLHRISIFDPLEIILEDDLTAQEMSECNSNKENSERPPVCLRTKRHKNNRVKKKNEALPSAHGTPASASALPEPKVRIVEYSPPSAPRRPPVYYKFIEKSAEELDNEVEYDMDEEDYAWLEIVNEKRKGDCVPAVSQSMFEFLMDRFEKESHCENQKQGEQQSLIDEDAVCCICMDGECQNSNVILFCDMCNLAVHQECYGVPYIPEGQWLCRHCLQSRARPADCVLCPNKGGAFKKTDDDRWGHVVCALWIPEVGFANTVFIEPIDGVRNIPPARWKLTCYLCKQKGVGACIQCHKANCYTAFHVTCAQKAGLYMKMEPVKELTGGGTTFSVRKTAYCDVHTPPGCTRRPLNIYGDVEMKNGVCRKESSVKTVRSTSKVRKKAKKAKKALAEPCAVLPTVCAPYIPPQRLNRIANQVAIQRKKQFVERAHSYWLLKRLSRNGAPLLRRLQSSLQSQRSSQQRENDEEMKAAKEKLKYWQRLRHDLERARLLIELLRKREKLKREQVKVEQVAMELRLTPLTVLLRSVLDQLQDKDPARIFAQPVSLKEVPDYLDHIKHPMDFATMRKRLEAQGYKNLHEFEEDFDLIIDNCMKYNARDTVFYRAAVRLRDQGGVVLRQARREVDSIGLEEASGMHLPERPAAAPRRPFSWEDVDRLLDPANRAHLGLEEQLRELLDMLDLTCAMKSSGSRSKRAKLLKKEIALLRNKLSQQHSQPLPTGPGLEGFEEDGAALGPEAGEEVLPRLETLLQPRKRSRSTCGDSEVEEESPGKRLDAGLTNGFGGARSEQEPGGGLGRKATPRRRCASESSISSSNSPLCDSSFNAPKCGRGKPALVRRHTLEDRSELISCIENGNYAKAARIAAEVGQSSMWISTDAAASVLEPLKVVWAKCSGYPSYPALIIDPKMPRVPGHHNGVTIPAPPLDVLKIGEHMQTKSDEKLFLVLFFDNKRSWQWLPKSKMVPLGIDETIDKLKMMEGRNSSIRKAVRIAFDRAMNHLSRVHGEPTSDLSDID", "assay": "Binding affinity to BRPF2 (unknown origin) by BROMOscan panel based assay"}, "[4]": {"biological_target": "T1, Bromodomain-containing protein 4", "assay": "Binding affinity to BRD4 containing BD1 bromodomains (unknown origin) by TR-FRET assay"}, "[5]": {"biological_target": "T2, ATPase family AAA domain-containing protein 2B (Homo sapiens, UniProt Q9ULI0)", "T2 sequence (Q9ULI0 whole entry, the tested form may be a part)": "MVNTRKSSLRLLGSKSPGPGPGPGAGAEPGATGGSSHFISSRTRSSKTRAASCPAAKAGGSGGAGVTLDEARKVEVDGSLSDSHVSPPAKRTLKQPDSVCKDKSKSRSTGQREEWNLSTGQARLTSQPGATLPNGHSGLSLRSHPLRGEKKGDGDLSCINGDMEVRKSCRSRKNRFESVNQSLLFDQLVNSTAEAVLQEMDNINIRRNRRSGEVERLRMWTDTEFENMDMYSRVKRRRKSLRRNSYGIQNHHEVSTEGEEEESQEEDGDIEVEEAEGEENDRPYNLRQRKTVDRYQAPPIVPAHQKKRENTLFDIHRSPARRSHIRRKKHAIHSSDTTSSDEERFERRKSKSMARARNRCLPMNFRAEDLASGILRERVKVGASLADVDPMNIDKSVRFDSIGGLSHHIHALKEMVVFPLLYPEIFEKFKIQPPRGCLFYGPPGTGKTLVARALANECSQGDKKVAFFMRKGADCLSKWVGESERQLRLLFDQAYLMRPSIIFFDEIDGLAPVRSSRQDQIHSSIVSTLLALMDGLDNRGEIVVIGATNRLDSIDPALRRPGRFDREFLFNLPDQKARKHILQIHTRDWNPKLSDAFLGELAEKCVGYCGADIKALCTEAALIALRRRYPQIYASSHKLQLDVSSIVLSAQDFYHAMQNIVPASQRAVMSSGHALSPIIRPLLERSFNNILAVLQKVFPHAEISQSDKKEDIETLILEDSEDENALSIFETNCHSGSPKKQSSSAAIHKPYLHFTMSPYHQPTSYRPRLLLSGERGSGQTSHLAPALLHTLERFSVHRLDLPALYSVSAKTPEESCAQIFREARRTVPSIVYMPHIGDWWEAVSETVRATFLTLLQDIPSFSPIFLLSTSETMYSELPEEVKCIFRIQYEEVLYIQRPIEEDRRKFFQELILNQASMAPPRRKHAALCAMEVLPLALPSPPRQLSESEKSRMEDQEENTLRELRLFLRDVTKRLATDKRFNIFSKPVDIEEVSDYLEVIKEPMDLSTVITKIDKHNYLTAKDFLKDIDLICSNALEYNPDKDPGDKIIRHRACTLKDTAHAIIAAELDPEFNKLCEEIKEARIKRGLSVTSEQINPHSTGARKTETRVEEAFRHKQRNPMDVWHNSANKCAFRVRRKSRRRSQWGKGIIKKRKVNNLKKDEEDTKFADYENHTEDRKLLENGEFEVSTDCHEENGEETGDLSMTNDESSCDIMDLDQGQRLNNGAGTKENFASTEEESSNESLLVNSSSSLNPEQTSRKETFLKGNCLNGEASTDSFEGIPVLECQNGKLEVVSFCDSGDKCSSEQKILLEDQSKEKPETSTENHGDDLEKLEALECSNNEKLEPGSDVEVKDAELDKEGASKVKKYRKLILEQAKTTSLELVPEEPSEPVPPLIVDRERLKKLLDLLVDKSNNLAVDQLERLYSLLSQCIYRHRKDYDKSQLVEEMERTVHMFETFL", "assay": "Binding affinity to ATAD2B in human HUT78 cells incubated for 45 mins by mass spectrometry based bromosphere chemoproteomic assay", "format": "cell-based"}, "Peregrin": {"biological_target": "T3, Peregrin (Homo sapiens, UniProt P55201)", "T3 sequence (P55201 whole entry)": "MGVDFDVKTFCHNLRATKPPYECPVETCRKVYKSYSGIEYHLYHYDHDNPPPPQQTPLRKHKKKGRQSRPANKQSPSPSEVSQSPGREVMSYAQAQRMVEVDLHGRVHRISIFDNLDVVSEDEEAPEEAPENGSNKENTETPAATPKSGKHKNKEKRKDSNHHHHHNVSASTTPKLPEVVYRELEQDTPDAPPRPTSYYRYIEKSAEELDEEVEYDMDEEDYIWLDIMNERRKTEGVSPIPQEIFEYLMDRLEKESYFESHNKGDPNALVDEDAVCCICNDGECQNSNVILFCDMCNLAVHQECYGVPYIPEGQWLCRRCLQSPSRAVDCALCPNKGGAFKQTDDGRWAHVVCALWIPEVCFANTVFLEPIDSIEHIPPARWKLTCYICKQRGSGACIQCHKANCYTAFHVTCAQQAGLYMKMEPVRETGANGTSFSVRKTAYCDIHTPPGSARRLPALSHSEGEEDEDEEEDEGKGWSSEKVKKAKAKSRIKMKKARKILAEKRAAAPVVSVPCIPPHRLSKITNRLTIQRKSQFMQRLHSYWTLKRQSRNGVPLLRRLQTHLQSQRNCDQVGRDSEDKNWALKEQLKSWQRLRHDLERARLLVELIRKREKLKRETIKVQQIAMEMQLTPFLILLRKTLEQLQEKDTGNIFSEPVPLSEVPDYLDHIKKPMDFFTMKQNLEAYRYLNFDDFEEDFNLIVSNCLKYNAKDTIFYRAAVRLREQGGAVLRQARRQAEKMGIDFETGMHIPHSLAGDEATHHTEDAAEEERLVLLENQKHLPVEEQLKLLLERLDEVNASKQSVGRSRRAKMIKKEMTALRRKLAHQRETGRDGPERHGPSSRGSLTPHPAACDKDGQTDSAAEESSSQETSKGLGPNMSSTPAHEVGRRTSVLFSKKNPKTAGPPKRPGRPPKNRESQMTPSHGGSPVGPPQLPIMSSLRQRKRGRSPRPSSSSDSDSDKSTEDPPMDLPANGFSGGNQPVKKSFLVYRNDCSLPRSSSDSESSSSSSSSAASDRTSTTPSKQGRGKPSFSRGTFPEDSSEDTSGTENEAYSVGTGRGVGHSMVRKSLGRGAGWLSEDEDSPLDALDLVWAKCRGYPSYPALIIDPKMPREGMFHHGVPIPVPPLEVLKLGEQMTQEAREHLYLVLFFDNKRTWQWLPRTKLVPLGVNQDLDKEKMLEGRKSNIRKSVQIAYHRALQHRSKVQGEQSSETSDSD", "assay": "Binding affinity to BRPF1 (unknown origin) by BROMOscan panel based assay"}, "[6]": {"biological_target": "Bromodomain testis-specific protein (Homo sapiens, UniProt Q58F21)", "assay": "Binding affinity to BRDt containing BD2 bromodomains (unknown origin) by TR-FRET assay"}, "[7]": {"biological_target": "T4, Bromodomain-containing protein 9 (Homo sapiens, UniProt Q9H8M2)", "T4 sequence (Q9H8M2 whole entry)": "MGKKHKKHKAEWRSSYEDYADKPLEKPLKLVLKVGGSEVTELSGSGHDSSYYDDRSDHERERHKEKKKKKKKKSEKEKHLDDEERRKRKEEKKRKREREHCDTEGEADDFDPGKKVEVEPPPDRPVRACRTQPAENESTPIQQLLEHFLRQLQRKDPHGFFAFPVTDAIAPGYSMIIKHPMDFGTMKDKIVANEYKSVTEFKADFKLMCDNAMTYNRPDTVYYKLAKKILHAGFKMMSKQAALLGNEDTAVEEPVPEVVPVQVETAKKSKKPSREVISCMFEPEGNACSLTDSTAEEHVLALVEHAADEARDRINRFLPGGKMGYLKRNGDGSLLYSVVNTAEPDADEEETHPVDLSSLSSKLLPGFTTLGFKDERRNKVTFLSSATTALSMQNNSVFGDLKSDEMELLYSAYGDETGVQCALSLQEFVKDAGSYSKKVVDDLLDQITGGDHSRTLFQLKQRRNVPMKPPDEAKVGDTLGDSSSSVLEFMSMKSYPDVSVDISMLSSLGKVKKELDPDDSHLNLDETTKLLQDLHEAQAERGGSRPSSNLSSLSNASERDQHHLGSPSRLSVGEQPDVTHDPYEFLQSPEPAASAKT", "assay": "Binding affinity to BRD9 in human HUT78 cells incubated for 45 mins by mass spectrometry based bromosphere chemoproteomic assay", "format": "cell-based"}, "[8]": {"assay": "Permeability across phosphatidyl choline membrane at pH 7.4 after 3 hrs by HPLC with UV detection method", "format": "ADME", "conditions": "not told, read-out: permeability"}, "[9]": {"biological_target": "T2, ATPase family AAA domain-containing protein 2B", "assay": "Binding affinity to ATAD2B (unknown origin) by BROMOscan panel based assay"}, "[10]": {"biological_target": "SWI/SNF-related matrix-associated actin-dependent regulator of chromatin subfamily A member 4 (Homo sapiens, UniProt P51532)", "assay": "Binding affinity to SMARCA4 in human HUT78 cells incubated for 45 mins by mass spectrometry based bromosphere chemoproteomic assay", "format": "cell-based"}, "[11]": {"biological_target": "Nucleosome-remodeling factor subunit BPTF (Homo sapiens, UniProt Q12830)", "assay": "Binding affinity to BPTF in human HUT78 cells incubated for 45 mins by mass spectrometry based bromosphere chemoproteomic assay", "format": "cell-based"}, "[12]": {"biological_target": "Bromodomain-containing protein 7 (Homo sapiens, UniProt Q9NPI1)", "sequence (Q9NPI1 whole entry)": "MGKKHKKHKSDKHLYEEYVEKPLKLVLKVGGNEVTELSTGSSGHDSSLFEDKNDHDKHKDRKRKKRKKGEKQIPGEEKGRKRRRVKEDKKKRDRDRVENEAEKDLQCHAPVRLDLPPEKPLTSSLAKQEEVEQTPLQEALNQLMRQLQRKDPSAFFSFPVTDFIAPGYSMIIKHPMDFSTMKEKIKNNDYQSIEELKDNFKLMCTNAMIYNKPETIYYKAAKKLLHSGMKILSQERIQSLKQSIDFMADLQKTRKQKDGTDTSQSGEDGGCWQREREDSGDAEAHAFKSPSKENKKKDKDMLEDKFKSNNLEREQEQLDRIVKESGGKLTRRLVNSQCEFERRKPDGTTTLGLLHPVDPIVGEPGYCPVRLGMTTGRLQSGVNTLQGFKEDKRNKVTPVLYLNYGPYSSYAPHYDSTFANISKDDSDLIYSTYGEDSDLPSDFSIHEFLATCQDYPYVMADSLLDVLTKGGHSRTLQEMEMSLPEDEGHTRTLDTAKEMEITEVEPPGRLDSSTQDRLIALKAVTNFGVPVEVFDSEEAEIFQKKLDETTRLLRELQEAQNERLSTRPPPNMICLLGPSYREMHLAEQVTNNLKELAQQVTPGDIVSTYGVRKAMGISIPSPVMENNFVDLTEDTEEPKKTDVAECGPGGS", "assay": "Binding affinity to BRD7 in human HUT78 cells incubated for 45 mins by mass spectrometry based bromosphere chemoproteomic assay", "format": "cell-based"}, "Protein polybromo-1": {"biological_target": "Protein polybromo-1 (Homo sapiens, UniProt Q86U86)", "sequence (Q86U86 whole entry)": "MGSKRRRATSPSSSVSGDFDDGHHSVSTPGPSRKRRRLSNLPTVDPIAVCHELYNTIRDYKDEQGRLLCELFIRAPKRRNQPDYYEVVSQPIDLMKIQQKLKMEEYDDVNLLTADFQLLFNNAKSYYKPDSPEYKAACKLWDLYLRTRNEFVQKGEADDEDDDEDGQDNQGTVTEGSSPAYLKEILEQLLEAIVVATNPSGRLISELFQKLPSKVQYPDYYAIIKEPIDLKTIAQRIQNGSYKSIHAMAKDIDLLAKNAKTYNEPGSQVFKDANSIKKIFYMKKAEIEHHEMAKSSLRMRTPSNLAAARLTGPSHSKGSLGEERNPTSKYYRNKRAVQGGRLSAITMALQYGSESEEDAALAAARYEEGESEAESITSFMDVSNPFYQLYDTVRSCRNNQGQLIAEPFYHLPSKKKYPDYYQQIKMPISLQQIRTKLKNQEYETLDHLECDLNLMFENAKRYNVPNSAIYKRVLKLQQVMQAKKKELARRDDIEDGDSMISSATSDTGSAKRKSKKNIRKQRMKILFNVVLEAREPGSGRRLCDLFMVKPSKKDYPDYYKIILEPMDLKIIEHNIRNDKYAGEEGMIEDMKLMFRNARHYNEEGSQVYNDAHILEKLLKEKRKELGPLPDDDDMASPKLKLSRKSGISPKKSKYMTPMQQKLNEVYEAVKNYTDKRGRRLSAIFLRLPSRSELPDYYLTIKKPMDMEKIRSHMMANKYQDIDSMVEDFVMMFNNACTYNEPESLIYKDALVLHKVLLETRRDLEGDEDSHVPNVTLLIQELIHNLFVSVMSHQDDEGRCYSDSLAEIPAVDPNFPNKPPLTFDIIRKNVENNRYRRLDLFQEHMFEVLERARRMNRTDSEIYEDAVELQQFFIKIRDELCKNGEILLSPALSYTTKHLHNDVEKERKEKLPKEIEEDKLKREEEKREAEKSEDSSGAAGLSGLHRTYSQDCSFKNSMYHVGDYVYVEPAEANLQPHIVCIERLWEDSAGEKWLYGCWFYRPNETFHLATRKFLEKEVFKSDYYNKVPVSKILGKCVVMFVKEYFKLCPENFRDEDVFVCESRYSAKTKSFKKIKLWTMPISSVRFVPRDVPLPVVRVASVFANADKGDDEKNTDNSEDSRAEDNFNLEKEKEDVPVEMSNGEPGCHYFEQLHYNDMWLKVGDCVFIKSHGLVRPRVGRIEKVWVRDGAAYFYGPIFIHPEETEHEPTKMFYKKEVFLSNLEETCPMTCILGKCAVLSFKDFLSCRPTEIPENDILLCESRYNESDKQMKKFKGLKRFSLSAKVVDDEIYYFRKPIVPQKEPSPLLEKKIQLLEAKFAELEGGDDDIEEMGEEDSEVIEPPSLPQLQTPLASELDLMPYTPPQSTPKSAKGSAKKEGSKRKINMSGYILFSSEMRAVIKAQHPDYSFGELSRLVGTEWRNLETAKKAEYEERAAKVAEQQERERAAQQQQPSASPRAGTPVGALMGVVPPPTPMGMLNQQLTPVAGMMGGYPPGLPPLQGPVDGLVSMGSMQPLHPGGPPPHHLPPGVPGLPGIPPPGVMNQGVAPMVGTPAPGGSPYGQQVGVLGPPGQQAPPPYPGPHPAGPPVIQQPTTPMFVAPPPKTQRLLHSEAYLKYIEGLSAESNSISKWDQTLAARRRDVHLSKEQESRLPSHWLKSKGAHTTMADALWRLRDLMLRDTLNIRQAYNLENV", "assay": "Binding affinity to PBRM1 in human HUT78 cells incubated for 45 mins by mass spectrometry based bromosphere chemoproteomic assay", "format": "cell-based"}}}
{"smiles": "Cc1cncc(-c2cnc(N[C@@H]3CCN(C)C[C@H]3OCC3CCS(=O)(=O)CC3)c3[nH]c(=O)c(C)cc23)c1", "values": [{"measurement": "Ki", "setting": "[1]", "value": 7.94, "unit": "µM"}, {"measurement": "Ki", "setting": "[2]", "value": 0.794, "unit": "µM"}, {"measurement": "Ki", "setting": "[3]", "value": 0.398, "unit": "µM"}, {"measurement": "IC50", "setting": "[4]", "value": 79.4, "unit": "µM"}, {"measurement": "Kd", "setting": "[5]", "value": 0.1, "unit": "µM"}, {"measurement": "Ki", "setting": "Peregrin", "value": 5.01, "unit": "µM"}, {"measurement": "IC50", "setting": "[6]", "value": "> 50.1", "unit": "µM"}, {"measurement": "Kd", "setting": "[7]", "value": 15.8, "unit": "µM"}, {"measurement": "Papp at 3 h", "setting": "[8]", "value": "< 1", "unit": "×10⁻⁶ cm/s"}, {"measurement": "Ki", "setting": "[9]", "value": 0.0398, "unit": "µM"}, {"measurement": "Kd", "setting": "[10]", "value": 20, "unit": "µM"}, {"measurement": "Kd", "setting": "[11]", "value": "> 100", "unit": "µM"}, {"measurement": "Kd", "setting": "[12]", "value": 31.6, "unit": "µM"}, {"measurement": "Kd", "setting": "Protein polybromo-1", "value": "> 100", "unit": "µM"}]}
